Data published in patent US11390606B2, “Pyridazinone compounds and uses thereof” (Edgewise Therapeutics, Inc., priority 2018, dated 2022).

Molecular target: T1, skeletal myofibrils (Rabbit Psoas), myosin ATPase activity
T1 construct: Rabbit Psoas Prep 11 (0.25 mg/mL)
Test: Skeletal Myofibril ATPase Assay
Format: biochemical
Settings: skeletal myofibrils (Rabbit Psoas 0.25 mg/mL), PK/LDH-coupled NADH absorbance at 340 nm
Protocol: Overview: Myosin ATPase activity is assessed by using a coupled reaction system, in which ADP generated by the myosin ATPase function is coupled to the disappearance of NADH through the pyruvate kinase/lactate dehydrogenase (PK-LDH) system. Myosin ATPase activity produces ADP, which is used as a substrate for PK to produce pyruvate and regenerate ATP. The pyruvate is then used as a substrate by LDH to oxidize NADH to NAD+. The rate of the reaction is monitored through the time-dependent disappearance of NADH using absorbance at 340 nm. Inhibition of ATPase activity by the assayed compounds is indicated by a reduced rate of NADH loss, relative to vehicle-treated controls, over the experimental time window. To assess the selectivity of the assayed compounds for skeletal myofibrils, the compounds are counter-screened in cardiac myofibrils.
Materials: The following stock solutions and reagents were used in the Skeletal Myofibril ATPase Assay:
Stock Solutions of pCa buffer. Combine PIPES, CaCl2, and EGTA solutions with 70 mL of water. Adjust pH to 7.0 and bring final volume to 100 mL.
Buffer A & Buffer B. Buffers were stored on ice until use.
Skeletal Myofibril ATPase Assay Procedure: BSA, ATP, NADH, PEP, and DTT solutions were thawed at room temperature, then transferred to ice. Pellet-frozen myofibrils were transferred with approximately twice the required volume into a sufficiently large tube and capped. Myofibrils were thawed by rolling in a water bath for approximately 15 min at room temperature and cooled on ice. Buffers A and B were prepared by adjusting volumes as necessary for required number of wells and stored on ice. 0.5 μL of the compounds to be assayed were added into wells. 25 μL of Buffer A was dispensed into the wells, followed by 25 μL of Buffer B. The wells were measured for absorbance at 340 nm, using a kinetic protocol in which the wells are read every 1.5-2 min for 45 min. The slope of the data was approximated by subtracting the minimum absorbance value from the maximum value for each well. This was accomplished either in the SoftMax Pro software or in a spreadsheet program such as Excel. Using GraphPad Prism 8.0, the data was normalized by assigning a value of 100% to the 1% DMSO vehicle wells. Typically, a normalized 0% value was simply assigned to a (Max−Min) value of 0. The normalized data was fit to a Four Parameter Logistic sigmoidal equation, constraining the bottom to be 0 or greater. Compounds of Table 1 to 4 were tested and results of the assay appear in Table 5 herein. A=IC50 is less than or equal to 10 μM; B=IC50 is greater than 10 μM and less than 100 μM; C=IC50 is greater than 100 μM.

Compound | IC50
O=c1ccc(-c2cnc(OCCOC(F)F)nc2)nn1Cc1ccc(Cl)cc1 [Compound 1, 2-(4-chlorobenzyl)-6-(2-(2-(difluoromethoxy)ethoxy)pyrimidin-5-yl)pyridazin-3(2H)-one] | < 10 µM
O=c1ccc(-c2cnc(OCCOC(F)(F)F)nc2)nn1Cc1ccc(Cl)cc1 [Compound 2, 2-(4-chlorobenzyl)-6-(2-(2-(trifluoromethoxy)ethoxy)pyrimidin-5-yl)pyridazin-3(2H)-one] | < 10 µM
O=c1ccc(-c2cnc(N3CC(C(F)(F)F)C3)nc2)nn1Cc1ccc(Cl)cc1 [Compound 4, 2-(4-chlorobenzyl)-6-(2-(3-(trifluoromethyl)azetidin-1-yl)pyrimidin-5-yl)pyridazin-3(2H)-one] | < 10 µM
O=c1ccc(-c2cnc(OCC(F)(F)F)nc2)nn1Cc1ccc(Cl)cc1 [Compound 5, 2-(4-chlorobenzyl)-6-(2-(2,2,2-trifluoroethoxy)pyrimidin-5-yl)pyridazin-3(2H)-one] | < 10 µM
O=c1ccc(-c2cnc(NCC(F)(F)F)nc2)nn1Cc1ccc(Cl)cc1 [Compound 6, 2-(4-chlorobenzyl)-6-(2-((2,2,2-trifluoroethyl)amino)pyrimidin-5-yl)pyridazin-3(2H)-one] | < 10 µM
O=c1ccc(-c2cnc(OCC(F)(F)F)nc2)nn1Cc1ccc(O)c(Cl)c1 [Compound 7, 2-(3-chloro-4-hydroxybenzyl)-6-(2-(2,2,2-trifluoroethoxy)pyrimidin-5-yl)pyridazin-3(2H)-one] | < 10 µM
O=c1ccc(-c2cnc(NC3CC3)nc2)nn1Cc1ccc(Cl)cc1 [Compound 8, 2-(4-chlorobenzyl)-6-(2-(cyclopropylamino)pyrimidin-5-yl)pyridazin-3(2H)-one] | < 10 µM
O=c1ccc(-c2cnc(N3CC(OC(F)F)C3)nc2)nn1Cc1ccc(Cl)cc1 [Compound 9, 2-(4-chlorobenzyl)-6-(2-(3-(difluoromethoxy)azetidin-1-yl)pyrimidin-5-yl)pyridazin-3(2H)-one] | < 10 µM
O=c1ccc(-c2cnc(OC(F)F)nc2)nn1Cc1ccc(Cl)cc1 [Compound 10, 2-(4-chlorobenzyl)-6-(2-(difluoromethoxy)pyrimidin-5-yl)pyridazin-3(2H)-one] | < 10 µM
O=c1ccc(-c2ccc(OCC(F)(F)F)nc2)nn1Cc1ccc(Cl)cc1 [Compound 11, 2-(4-chlorobenzyl)-6-(6-(2,2,2-trifluoroethoxy)pyridin-3-yl)pyridazin-3(2H)-one] | < 10 µM
CNc1ncc(-c2ccc(=O)n(Cc3ccc(Cl)cc3)n2)cn1 [Compound 12, 2-(4-chlorobenzyl)-6-(2-(methylamino)pyrimidin-5-yl)pyridazin-3(2H)-one] | < 10 µM
O=c1ccc(-c2ccc(OC(F)(F)F)nc2)nn1Cc1ccc(Cl)cc1 [Compound 13, 2-(4-chlorobenzyl)-6-(6-(trifluoromethoxy)pyridin-3-yl)pyridazin-3(2H)-one] | < 10 µM
O=c1ccc(-c2cnc(N3CC4(C3)CC(F)(F)C4)nc2)nn1Cc1ccc(Cl)cc1 [Compound 14, 2-(4-chlorobenzyl)-6-(2-(6,6-difluoro-2-azaspiro[3.3]heptan-2-yl)pyrimidin-5-yl)pyridazin-3(2H)-one] | < 10 µM
O=c1ccc(-c2ccc(OC(F)F)nc2)nn1Cc1ccc(Cl)c(F)c1 [Compound 15, 2-(4-chloro-3-fluorobenzyl)-6-(6-(difluoromethoxy)pyridin-3-yl)pyridazin-3(2H)-one] | < 10 µM
CC1CCCN1c1ncc(-c2ccc(=O)n(Cc3ccc(F)cc3F)n2)cn1 (stereo not drawn) [Compound 16, 2-(2,4-difluorobenzyl)-6-(2-(2-methylpyrrolidin-1-yl)pyrimidin-5-yl)pyridazin-3(2H)-one] | < 10 µM
COc1ccc(-c2ccc(=O)n(Cc3ccc(Cl)cc3)n2)cn1 [Compound 17, 2-(4-chlorobenzyl)-6-(6-methoxypyridin-3-yl)pyridazin-3(2H)-one] | < 10 µM
O=c1ccc(-c2cnc(N3CC(OC(F)(F)F)C3)nc2)nn1Cc1ccc(Cl)cc1 [Compound 18, 2-(4-chlorobenzyl)-6-(2-(3-(trifluoromethoxy)azetidin-1-yl)pyrimidin-5-yl)pyridazin-3(2H)-one] | < 10 µM
O=c1ccc(-c2ccc(OC(F)F)nc2)nn1Cc1ccc(Cl)cc1 [Compound 19, 2-(4-chlorobenzyl)-6-(6-(difluoromethoxy)pyridin-3-yl)pyridazin-3(2H)-one] | < 10 µM
O=c1ccc(-c2ccc(OC(F)F)nc2)nn1Cc1ccc(F)c(Cl)c1 [Compound 20, 2-(3-chloro-4-fluorobenzyl)-6-(6-(difluoromethoxy)pyridin-3-yl)pyridazin-3(2H)-one] | < 10 µM
O=c1ccc(-c2ccc(OCC3(F)COC3)nc2)nn1Cc1ccc(Cl)cc1 [Compound 21, 2-(4-chlorobenzyl)-6-(6-((3-fluorooxetan-3-yl)methoxy)pyridin-3-yl)pyridazin-3(2H)-one] | < 10 µM
O=c1ccc(-c2cnc(OCC3(F)COC3)nc2)nn1Cc1ccc(Cl)cc1 [Compound 22, 2-(4-chlorobenzyl)-6-(2-((3-fluorooxetan-3-yl)methoxy)pyrimidin-5-yl)pyridazin-3(2H)-one] | < 10 µM
O=c1ccc(-c2cnc(N3CCCC3)nc2)nn1Cc1ccc(F)cc1F [Compound 23, 2-(2,4-difluorobenzyl)-6-(2-(pyrrolidin-1-yl)pyrimidin-5-yl)pyridazin-3(2H)-one] | < 10 µM
O=c1ccc(-c2cnc(OCC3(F)COC3)nc2)nn1Cc1ccc(F)cc1F [Compound 24, 2-(2,4-difluorobenzyl)-6-(2-((3-fluorooxetan-3-yl)methoxy)pyrimidin-5-yl)pyridazin-3(2H)-one] | < 10 µM
O=c1ccc(-c2cnc(OCC3COC3)nc2)nn1Cc1ccc(F)cc1F [Compound 25, 2-(2,4-difluorobenzyl)-6-(2-(oxetan-3-ylmethoxy)pyrimidin-5-yl)pyridazin-3(2H)-one] | < 10 µM
CC(=O)Nc1ncc(-c2ccc(=O)n(Cc3ccc(Cl)cc3)n2)cn1 [Compound 26, N-(5-(1-(4-chlorobenzyl)-6-oxo-1,6-dihydropyridazin-3-yl)pyrimidin-2-yl)acetamide] | < 10 µM
CN(C)c1ccc(-c2ccc(=O)n(Cc3ccc(Cl)cc3)n2)cn1 [Compound 27, 2-(4-chlorobenzyl)-6-(6-(dimethylamino)pyridin-3-yl)pyridazin-3(2H)-one] | < 10 µM
CN1CCC(F)(COc2ccc(-c3ccc(=O)n(Cc4ccc(Cl)cc4)n3)cn2)CC1 [Compound 28, 2-(4-chlorobenzyl)-6-(6-((4-fluoro-1-methylpiperidin-4-yl)methoxy)pyridin-3-yl)pyridazin-3(2H)-one] | > 100 µM
CN(CC(F)(F)F)c1ncc(-c2ccc(=O)n(Cc3ccc(F)cc3F)n2)cn1 [Compound 29, 2-(2,4-difluorobenzyl)-6-(2-(methyl(2,2,2-trifluoroethyl)amino)pyrimidin-5-yl)pyridazin-3(2H)-one] | < 10 µM
O=c1ccc(-c2cnc(N3CCCC3C(F)(F)F)nc2)nn1Cc1ccc(F)cc1F (stereo not drawn) [Compound 30, 2-(2,4-difluorobenzyl)-6-(2-(2-(trifluoromethyl)pyrrolidin-1-yl)pyrimidin-5-yl)pyridazin-3(2H)-one] | < 10 µM
O=c1ccc(-c2cnc(OCC(F)(F)F)nc2)nn1Cc1ccccc1 [Compound 31, 2-benzyl-6-(2-(2,2,2-trifluoroethoxy)pyrimidin-5-yl)pyridazin-3(2H)-one] | < 10 µM
